Data from ChEMBL document CHEMBL1137327, “Optimization of chromone-2-carboxamide melanin concentrating hormone receptor 1 antagonists: assessment of potency, efficacy, and cardiovascular safety” (J Med Chem, 2006).

Experiments:
[1] = biological target: T1, Melanin-concentrating hormone receptor 1 (Homo sapiens, UniProt Q99705); assay: Displacement of [125I]MCH from MCHr1 expressed in IMR32 cells; assay type: cell-based, IMR-32
[2] = biological target: T1, Melanin-concentrating hormone receptor 1; assay: Antagonist activity at MCHr1 assessed as inhibition of MCH-mediated calcium ion release in intact IMR32 cells by FLIPR assay; assay type: functional, cell-based, IMR-32
[3] = Drug level in C57BL/6J DIO mouse brain at 3 mg/kg, po after 22 days; assay type: ADME, organism-based; design: dose 3 mg/kg, route oral; settings: read-out: Drug uptake
Mus musculus [4] = assay: AUC in C57BL/6J DIO mouse brain at 10 mg/kg, po; assay type: ADME, organism-based; design: dose 10 mg/kg, route oral; settings: in vivo
[5] = Half life in C57BL/6J DIO mouse brain at 10 mg/kg, po; assay type: ADME, organism-based; design: dose 10 mg/kg, route oral
[6] = Drug level in C57BL/6J DIO mouse plasma at 10 mg/kg, po after 22 days; assay type: ADME, organism-based; design: dose 10 mg/kg, route oral
Rattus norvegicus [7] = assay: Drug level in anesthetized Sprague-Dawley rat plasma; assay type: ADME, organism-based; settings: in vivo
Canis familiaris [8] = species: Canis familiaris; assay: Decrease in heart rate in anasthetized Beagle dog at 36.13 ug/ml relative to control; assay type: functional, Canis lupus familiaris; design: scale not given: the % may be the effect or the level left
[9] = Half life in C57BL/6J DIO mouse plasma at 10 mg/kg, po; assay type: ADME, organism-based; design: dose 10 mg/kg, route oral
Rattus norvegicus [10] = assay: Drug level in anesthetized Sprague-Dawley rat brain; assay type: ADME, organism-based; settings: in vivo
[11] = Drug level in anasthetized Beagle dog plasma at 3 mg/kg, iv after 30 mins; assay type: ADME, organism-based, Canis lupus familiaris; design: dose 3 mg/kg, route intravenous
Canis familiaris [12] = species: Canis familiaris; assay: Decrease in heart rate in anasthetized Beagle dog at 10.94 ug/ml relative to control; assay type: functional, Canis lupus familiaris; design: scale not given: the % may be the effect or the level left
[13] = Drug level in C57BL/6J DIO mouse plasma at 3 mg/kg, po after 22 days; assay type: ADME, organism-based; design: dose 3 mg/kg, route oral
[14] = Drug level in C57BL/6J DIO mouse brain at 10 mg/kg, po after 22 days; assay type: ADME, organism-based; design: dose 10 mg/kg, route oral; settings: read-out: Drug uptake
[15] = AUC in C57BL/6J DIO mouse plasma at 10 mg/kg, po; assay type: ADME, organism-based; design: dose 10 mg/kg, route oral
Mus musculus [16] = assay: Decrease in body weight of C57BL/6J DIO mouse at 3 mg/kg, po after 22 days relative to control; assay type: functional; design: scale not given: the % may be the effect or the level left
[17] = Ratio of AUC in brain to plasma of C57BL/6J DIO mouse at 10 mg/kg, po; assay type: ADME, organism-based; design: dose 10 mg/kg, route oral; settings: brain and plasma, read-out: Ratio AUC
[18] = Cmax in C57BL/6J DIO mouse brain at 10 mg/kg, po; assay type: ADME, organism-based; design: dose 10 mg/kg, route oral
[19] = Drug level in anasthetized Beagle dog plasma at 10 mg/kg, iv after 30 mins; assay type: ADME, organism-based, Canis lupus familiaris; design: dose 10 mg/kg, route intravenous
Mus musculus [20] = assay: Decrease in body weight of C57BL/6J DIO mouse at 10 mg/kg, po after 22 days relative to control; assay type: functional; design: scale not given: the % may be the effect or the level left
[21] = Cmax in C57BL/6J DIO mouse plasma at 10 mg/kg, po; assay type: ADME, organism-based; design: dose 10 mg/kg, route oral; settings: read-out: Cp
[22] = Drug level in anasthetized Beagle dog plasma at 30 mg/kg, iv after 30 mins; assay type: ADME, organism-based, Canis lupus familiaris; design: dose 30 mg/kg, route intravenous
Rattus norvegicus [23] = assay: Decrease in mean arterial pressure in anesthetized Sprague-Dawley rat at 60 mg/kg; assay type: functional, Artery; design: scale not given: the % may be the effect or the level left

T1 sequence (Q99705 whole entry): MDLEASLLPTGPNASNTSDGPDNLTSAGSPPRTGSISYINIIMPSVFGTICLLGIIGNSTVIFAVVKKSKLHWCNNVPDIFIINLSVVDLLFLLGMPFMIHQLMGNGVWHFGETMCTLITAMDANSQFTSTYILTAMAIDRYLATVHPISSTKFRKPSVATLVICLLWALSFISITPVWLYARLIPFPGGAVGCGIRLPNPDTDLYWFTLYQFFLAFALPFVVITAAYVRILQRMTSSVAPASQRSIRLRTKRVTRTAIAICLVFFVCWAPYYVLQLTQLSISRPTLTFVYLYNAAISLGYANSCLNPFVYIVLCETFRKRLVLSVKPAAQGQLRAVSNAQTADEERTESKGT

`O=C(NC1CCN(Cc2ccccc2F)CC1)c1cc(=O)c2ccc(F)cc2o1` gave an IC50 [1] of 566 nM and an IC50 [2] of 2150 nM.
`O=C(NC1CCN(Cc2ccc3c(c2)OCO3)CC1)c1cc(=O)c2cc(F)c(F)c(F)c2o1` showed an IC50 [1] of 91 nM and an IC50 [2] of 418 nM.
For `O=C(NC1CCN(Cc2ccc3c(c2)OCO3)CC1)c1cc(=O)c2cc(OC(F)(F)F)ccc2o1`, the IC50 [1] was 132 nM and the IC50 [2] was > 9000 nM.
`COc1cccc(CN2CCC(NC(=O)c3cc(=O)c4ccc(F)cc4o3)CC2)c1` showed an IC50 [1] of 31 nM and an IC50 [2] of 390 nM.
With `CC(=O)Nc1ccc(CN2CCC(NC(=O)c3cc(=O)c4ccc(F)cc4o3)CC2)cc1` the IC50 [1] was 1690 nM and the IC50 [2] was > 10000 nM.
Compound `CCc1ccc2c(=O)cc(C(=O)NC3CCN(Cc4ccc5c(c4)OCO5)CC3)oc2c1` has an IC50 [1] of 59 nM and an IC50 [2] of 529 nM.
In the case of `COc1ccc2c(=O)cc(C(=O)N3CCN(Cc4ccc5c(c4)OCO5)CC3)oc2c1`, the IC50 [1] is reported as > 2000 nM.
With `O=C(NC1CCN(Cc2ccc(F)cc2)CC1)c1cc(=O)c2ccc(F)cc2o1` the IC50 [1] was 159 nM and the IC50 [2] was 789 nM.
Compound `O=C(NC1CCN(Cc2ccc3c(c2)OCO3)CC1)c1cc(=O)c2ccc(F)cc2o1` has a concentration at 528 h [3] of 1110 ng/g, an AUC (Mus musculus [4]) of 12658 ng·h/g and a half-life [5] of 2.4 h. It also gave a concentration at 528 h [6] of 3270 ng/mL, a Cp (Rattus norvegicus [7]) of 62000 ng/mL and an Activity (Canis familiaris [8]) of 11%. The half-life [9] was 2.5 h, the Drug uptake (Rattus norvegicus [10]) was 126 µg/g and the concentration at 0.5 h [11] was 5.9 µM. For the same compound, the Activity (Canis familiaris [12]) was 22%, the concentration at 528 h [13] was 840 ng/mL and the concentration at 528 h [14] was 4670 ng/g. For the same compound, the AUC [15] was 9290 ng·h/mL, the Activity (Mus musculus [16]) was 0% and the Kp [17] was 1.4. For the same compound, the Cmax [18] was 4370 ng/g, the concentration at 0.5 h [19] was 25.8 µM and the Activity (Mus musculus [20]) was 7%. The Cmax [21] was 1780 ng/mL and the concentration at 0.5 h [22] was 85.1 µM.
For `O=C(NC1CCN(Cc2ccc3c(c2)OCO3)CC1)c1cc(=O)c2cc(Br)ccc2o1`, the IC50 [1] was 187 nM and the IC50 [2] was > 6000 nM.
For `COc1ccc2c(=O)cc(C(=O)NC3CCN(Cc4ccc5c(c4)OCO5)C3)oc2c1` (configuration not stated), the IC50 [1] was > 2000 nM.
For `O=C(NC1CCN(Cc2ccc3c(c2)OCO3)CC1)c1cc(=O)c2ccccc2o1`, the IC50 [1] was 66 nM and the IC50 [2] was 192 nM.
`O=C(NC1CCN(Cc2ccc3c(c2)OCO3)CC1)c1cc(=O)c2cc(F)c(Cl)cc2o1` showed an IC50 [1] of 3 nM and an IC50 [2] of 71 nM.
In the case of `COc1ccc(CN2CCC(NC(=O)c3cc(=O)c4ccc(F)cc4o3)CC2)c(F)c1`, the IC50 [1] is reported as 53 nM and the IC50 [2] is reported as 411 nM.
In the case of `O=C(NC1CCN(Cc2ccc3c(c2)OC(F)(F)O3)CC1)c1cc(=O)c2ccc(F)cc2o1`, the IC50 [1] is reported as 57 nM and the IC50 [2] is reported as 601 nM.
For `O=C(NC1CCN(Cc2cccc3c2OCO3)CC1)c1cc(=O)c2ccc(F)cc2o1`, the IC50 [1] was > 700 nM.
`O=C(NC1CCN(Cc2ccc3c(c2)OCCO3)CC1)c1cc(=O)c2ccc(F)cc2o1` gave an IC50 [1] of 73 nM and an IC50 [2] of 171 nM.
In the case of `COc1ccc2c(=O)cc(C(=O)NCCC3CCCN3Cc3ccc4c(c3)OCO4)oc2c1` (configuration not stated), the IC50 [1] is reported as > 2000 nM.
`O=C(NC1CCN(Cc2cccc(F)c2)CC1)c1cc(=O)c2ccc(F)cc2o1` gave an IC50 [1] of 12 nM and an IC50 [2] of 966 nM.
Compound `O=C(NC1CCN(Cc2ccc3c(c2)OCO3)CC1)c1cc(=O)c2cc(F)c(F)cc2o1` has a Cp (Rattus norvegicus [7]) of 34000 ng/mL, a Drug uptake (Rattus norvegicus [10]) of 25 µg/g and an IC50 [1] of 2 nM. The IC50 [2] was 13 nM and the Activity (Rattus norvegicus [23]) was >15%.
Compound `O=C(NC1CCN(Cc2ccc3c(c2)OCO3)CC1)c1cc(=O)c2ccc(Br)cc2o1` has an IC50 [1] of 32 nM and an IC50 [2] of 82 nM.
`CC(=O)c1ccc(CN2CCC(NC(=O)c3cc(=O)c4ccc(F)cc4o3)CC2)cc1` showed an IC50 [1] of 39 nM and an IC50 [2] of 581 nM.
Compound `COc1ccc(CN2CCC(NC(=O)c3cc(=O)c4ccc(F)cc4o3)CC2)cc1OC` has an IC50 [1] of 427 nM.
